Measured values as given in the supplement of paper PMC11451515.

Test system: SEM cells
Assay: cell viability relative to DMSO control; higher = less cytotoxic
Conditions: 48 h
In short: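 NOMO1 or SEM cells were plated at 500 cells/well and P12-Ichikawa cells at 1000 cells/well in 1536-well plates (5 μl), after each leukemia line had been adapted for at least four passages in each medium. Pin dosing delivered library compounds in DMSO at 11 threefold concentrations, 47 μM to 0.79 nM. CellTiter-Glo One luminescence was read after 48 h at 37°C. Viability is reported as a per-plate percentage of DMSO wells, with cell-free wells as background.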

[1] = HPLM + 10% dialyzed FBS, 0.000781 µM
[2] = HPLM + 10% dialyzed FBS, 0.00234 µM
[3] = HPLM + 10% dialyzed FBS, 0.00702 µM
[4] = HPLM + 10% dialyzed FBS, 0.0211 µM
[5] = HPLM + 10% dialyzed FBS, 0.0632 µM
[6] = HPLM + 10% dialyzed FBS, 0.19 µM
[7] = HPLM + 10% dialyzed FBS, 0.569 µM
[8] = HPLM + 10% dialyzed FBS, 1.71 µM
[9] = HPLM + 10% dialyzed FBS, 5.12 µM
[10] = HPLM + 10% dialyzed FBS, 15.4 µM
[11] = HPLM + 10% dialyzed FBS, 46.1 µM
[12] = RPMI 5 mM glucose + 10% FBS, 0.000781 µM
[13] = RPMI 5 mM glucose + 10% FBS, 0.00234 µM
[14] = RPMI 5 mM glucose + 10% FBS, 0.00702 µM
[15] = RPMI 5 mM glucose + 10% FBS, 0.0211 µM
[16] = RPMI 5 mM glucose + 10% FBS, 0.0632 µM
[17] = RPMI 5 mM glucose + 10% FBS, 0.19 µM
[18] = RPMI 5 mM glucose + 10% FBS, 0.569 µM
[19] = RPMI 5 mM glucose + 10% FBS, 1.71 µM
[20] = RPMI 5 mM glucose + 10% FBS, 5.12 µM
[21] = RPMI 5 mM glucose + 10% FBS, 15.4 µM
[22] = RPMI 5 mM glucose + 10% FBS, 46.1 µM
[23] = RPMI 5 mM glucose + 10% dialyzed FBS, 0.000781 µM
[24] = RPMI 5 mM glucose + 10% dialyzed FBS, 0.00234 µM
[25] = RPMI 5 mM glucose + 10% dialyzed FBS, 0.00702 µM
[26] = RPMI 5 mM glucose + 10% dialyzed FBS, 0.0211 µM
[27] = RPMI 5 mM glucose + 10% dialyzed FBS, 0.0632 µM
[28] = RPMI 5 mM glucose + 10% dialyzed FBS, 0.19 µM
[29] = RPMI 5 mM glucose + 10% dialyzed FBS, 0.569 µM
[30] = RPMI 5 mM glucose + 10% dialyzed FBS, 1.71 µM
[31] = RPMI 5 mM glucose + 10% dialyzed FBS, 5.12 µM
[32] = RPMI 5 mM glucose + 10% dialyzed FBS, 15.4 µM
[33] = RPMI 5 mM glucose + 10% dialyzed FBS, 46.1 µM

SMILES | cell viability [1] [%] | cell viability [2] [%] | cell viability [3] [%] | cell viability [4] [%] | cell viability [5] [%] | cell viability [6] [%] | cell viability [7] [%] | cell viability [8] [%] | cell viability [9] [%] | cell viability [10] [%] | cell viability [11] [%] | cell viability [12] [%] | cell viability [13] [%] | cell viability [14] [%] | cell viability [15] [%] | cell viability [16] [%] | cell viability [17] [%] | cell viability [18] [%] | cell viability [19] [%] | cell viability [20] [%] | cell viability [21] [%] | cell viability [22] [%] | cell viability [23] [%] | cell viability [24] [%] | cell viability [25] [%] | cell viability [26] [%] | cell viability [27] [%] | cell viability [28] [%] | cell viability [29] [%] | cell viability [30] [%] | cell viability [31] [%] | cell viability [32] [%] | cell viability [33] [%]
CNC(=O)c1cc(Oc2ccc(NC(=O)Nc3ccc(Cl)c(C(F)(F)F)c3)c(F)c2)ccn1 | 83.2 | 91.4 | 91.1 | 78.4 | 84.3 | 80.6 | 39.7 | 43.7 | 35.3 | 25.9 | 25.1 | 97 | 101 | 112 | 114 | 73.8 | 89.4 | 44.1 | 44.1 | 31.6 | 27.2 | 21.8 | 86.9 | 96.7 | 82.1 | 84 | 61.7 | 73.6 | 47.3 | 31.7 | 26.9 | 18.8 | 20.3
CCN(CCO)CCCC(C)Nc1ccnc2cc(Cl)ccc12 (stereo unspecified) | 102 | 93.8 | 114 | 76.2 | 105 | 118 | 5.95 | 95 | 106 | 62.6 | 49.9 | 105 | 102 | 117 | 93 | 102 | 108 | 6.8 | 78.2 | 104 | 64.8 | 42.5 | 98.4 | 80.5 | 104 | 82.5 | 107 | 99.6 | 5.67 | 66 | 100 | 52.1 | 37.2
COC1=CC=CC(=C1/C2=N/CC3=C(N=C(NC4=CC(=C(C=C4)C(O)=O)OC)N=C3)C5=CC=C(Cl)C=C25)F | 83.2 | 75.2 | 93.3 | 79.7 | 65.7 | 26 | 25.3 | 33.1 | 28.9 | 25.8 | 23.4 | 91.7 | 84.3 | 85.4 | 85.4 | 68.7 | 16.6 | 18.1 | 16.5 | 18.9 | 14 | 16.4 | 75.5 | 80.7 | 82.2 | 88.8 | 54 | 20.2 | 21.1 | 24 | 23.9 | 15.7 | 17.8
N[C@@H](Cc1cc(I)c(Oc2cc(I)c(O)c(I)c2)c(I)c1)C(=O)O | 102 | 121 | 107 | 113 | 78.2 | 129 | 119 | 120 | 117 | 93.8 | 92.2 | 98.2 | 105 | 103 | 106 | 59.2 | 112 | 115 | 104 | 94.2 | 88.3 | 84.6 | – | – | – | – | – | – | – | – | – | – | –
CCC1=C2CN3C(=O)\C4=C(/C=C3/C2=NC5=CC=C(O)C=C15)[C@@](O)(CC)C(=O)OC4 | 96.7 | 95.6 | 91.4 | 28.1 | 19.3 | 17 | 11.6 | 6.74 | 6.74 | 6.36 | 4.6 | 108 | 102 | 67.7 | 25.6 | 15.6 | 16.1 | 12.9 | 6.76 | 7.58 | 5.69 | 5.1 | 94.5 | 89.1 | 65 | 28 | 16.6 | 15.2 | 12.8 | 6.01 | 7.69 | 5.69 | 4.62
CN1CCN(CC1)C/2=N/C3=CC=CC=C3NC4=C2C=C(C)S4 | 91 | 105 | 114 | 106 | 102 | 119 | 115 | 114 | 117 | 119 | 105 | 99.3 | 97.4 | 87.4 | 88.6 | 96.2 | 104 | 95.5 | 94.5 | 101 | 94.2 | 88.6 | 95.6 | 99.3 | 105 | 89.4 | 97.1 | 118 | 112 | 110 | 96 | 100 | 93.3
CC=CC1=C(C(=O)O)N2C(=O)[C@@H](NC(=O)[C@H](N)c3ccc(O)cc3)[C@H]2SC1.O | 71.1 | 70.5 | 79.2 | 92.5 | 91.4 | 81.3 | 90.1 | 83.9 | 72.8 | 91.6 | 82.1 | 86.4 | 96.4 | 93.8 | 97.7 | 90.9 | 92.9 | 98.8 | 115 | 86.6 | 105 | 94.6 | 84.8 | 97 | 98.4 | 115 | 109 | 86.1 | 110 | 110 | 84.7 | 112 | 114
CCOC(=O)c1c(/C(C#N)=C\N)c2ccc(Cl)c(Cl)c2n1C | 85.8 | 86.1 | 85.2 | 96.9 | 76.5 | 94.1 | 95.5 | 81.7 | 92.6 | 83.4 | 57.4 | 86.7 | 99.2 | 89.9 | 94.1 | 84.6 | 89.7 | 97.8 | 94.4 | 89.6 | 84 | 62 | 80 | 97.7 | 81.8 | 87.8 | 71.6 | 89.3 | 102 | 84.4 | 94.8 | 75.2 | 76.9
Cc1n[nH]c(C)c1Cc1sc2c(c1C(=O)N1C[C@H](O)CO1)c(=O)n(C)c(=O)n2CC(C)C | 81.6 | 102 | 90.5 | 105 | 80.3 | 79.3 | 67.7 | 68 | 62.2 | 58.4 | 43.4 | 110 | 111 | 116 | 122 | 98.2 | 106 | 89.1 | 85.2 | 87.9 | 85.9 | 63.5 | 97.8 | 105 | 108 | 103 | 96.2 | 88.8 | 103 | 93.1 | 87.4 | 85 | 74.8
O=C1C(CCC(O)c2ccc(F)cc2)C(c2ccc(O)cc2)N1c1ccc(F)cc1 (stereo unspecified) | 107 | 97.3 | 110 | 112 | 103 | 109 | 108 | 101 | 113 | 102 | 104 | 81.4 | 98.2 | 96 | 111 | 92.9 | 100 | 101 | 97.1 | 114 | 98.8 | 101 | 106 | 113 | 121 | 121 | 128 | 113 | 115 | 121 | 113 | 108 | 108
NNC(=O)c1ccncc1 | 84.6 | 79.5 | 73.6 | 92.9 | 93.8 | 86.6 | 29.2 | 42.5 | 95.7 | 92.3 | 82.4 | 107 | 98.6 | 97.2 | 98.7 | 116 | 115 | 37.3 | 46.7 | 91.6 | 94.9 | 87.6 | 107 | 110 | 92.4 | 97.2 | 98.1 | 105 | 37.2 | 34.9 | 101 | 95.6 | 82.8
Cc1ccnc(N[S+](=O)([O-])c2ccc(NC(=O)Nc3ccc([S+](=O)([O-])Nc4nccc(C)n4)cc3)cc2)n1 | 77.9 | 90.3 | 89.8 | 90.1 | 86.8 | 38.8 | 35.6 | 10.6 | 8.5 | 7.84 | 6.37 | 86.6 | 73.1 | 79.4 | 75.2 | 64.8 | 9.99 | 8.62 | 6.14 | 6.29 | 5.29 | 3.81 | 77.8 | 86.7 | 87.7 | 85.8 | 77.5 | 21.9 | 19.7 | 8.34 | 8.01 | 7.59 | 5.43
N[C@@H](Cc1ccc(N(CCCl)CCCl)cc1)C(=O)O | 118 | 124 | 125 | 128 | 126 | 116 | 119 | 103 | 48.6 | 18.3 | 11.8 | – | – | – | – | – | – | – | – | – | – | – | 114 | 115 | 120 | 126 | 134 | 123 | 107 | 90.7 | 34.4 | 13.7 | 5.98
CCOC\1=C(/C(=O)NC2=CC=C(OC3=C(Cl)C(=NC=C3)N)C(=C2)F)C(=O)N(\C=C1)C4=CC=C(F)C=C4 | 95.5 | 97.7 | 98.4 | 94.7 | 91.1 | 76.8 | 63.3 | 50.6 | 32.8 | 28.9 | 15 | 122 | 118 | 105 | 95.9 | 98.4 | 91.1 | 75.5 | 53.3 | 39.7 | 27.5 | 6.35 | 92.1 | 83.9 | 96 | 90.1 | 82.4 | 76.4 | 57 | 40 | 33.9 | 22.9 | 6.07
CC(=O)O[C@@]12CO[C@@H]1C[C@H](O)[C@]3(C)[C@@H]2[C@H](OC(=O)C4=CC=CC=C4)[C@]5(O)C[C@H](O)/C(=C(/[C@@H](O)C3=O)C5(C)C)C | 84.3 | 108 | 43.5 | 110 | 106 | 111 | 116 | 107 | 90.2 | 35.8 | 16.3 | 70.4 | 71.5 | 19.1 | 71 | 64.7 | 72.3 | 70.1 | 65.2 | 54.2 | 18.1 | 8.94 | 90.8 | 99.6 | 43.2 | 116 | 105 | 110 | 121 | 112 | 75.1 | 29.9 | 13
CC(=O)OCC(CCn1cnc2cnc(N)nc21)COC(C)=O | 83.4 | 65.5 | 93.6 | 84.8 | 97.3 | 101 | 105 | 101 | 97.7 | 109 | 90.8 | 85.9 | 71.3 | 69.2 | 97.5 | 88.1 | 98.3 | 98.2 | 103 | 97.4 | 103 | 109 | 79.3 | 79.8 | 74.9 | 81.2 | 96 | 95.5 | 103 | 97 | 110 | 97.9 | 95.6
